Where a name gives a salt, the structure may show the parent alone.

The source of these data is patent US7718652B2, “Substituted benzothiadiazinedioxide derivatives and methods of their use” (Wyeth LLC, priority 2006, dated 2010).

The target in one experiment is T1, human hNET (Homo sapiens, UniProt P23975).
T1 construct: expressed in transfected cells; host or cells: MDCK-Net6 (MDCK cells stably transfected)
T1 sequence (P23975 whole entry): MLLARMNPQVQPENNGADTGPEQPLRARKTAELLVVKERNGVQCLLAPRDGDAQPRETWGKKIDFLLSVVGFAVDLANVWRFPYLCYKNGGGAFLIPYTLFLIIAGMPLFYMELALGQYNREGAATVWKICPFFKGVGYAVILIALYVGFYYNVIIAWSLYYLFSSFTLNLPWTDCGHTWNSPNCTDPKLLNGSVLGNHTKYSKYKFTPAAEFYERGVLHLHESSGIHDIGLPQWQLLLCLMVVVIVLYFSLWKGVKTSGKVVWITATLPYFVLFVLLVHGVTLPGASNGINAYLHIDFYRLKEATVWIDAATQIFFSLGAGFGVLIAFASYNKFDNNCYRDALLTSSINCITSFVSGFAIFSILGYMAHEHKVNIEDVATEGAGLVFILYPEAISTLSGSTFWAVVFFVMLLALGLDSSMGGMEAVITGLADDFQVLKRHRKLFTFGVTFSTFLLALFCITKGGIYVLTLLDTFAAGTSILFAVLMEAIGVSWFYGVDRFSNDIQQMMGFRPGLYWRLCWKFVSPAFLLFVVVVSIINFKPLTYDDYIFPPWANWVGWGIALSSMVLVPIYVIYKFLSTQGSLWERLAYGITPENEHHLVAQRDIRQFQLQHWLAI
Kind of experiment: Functional Norepinephrine (NE) Uptake Assay in MDCK-Net6 cells. Format: cell-based. As to conditions: MDCK-Net6 cells stably transfected with human hNET; 3H norepinephrine 16 nM. On the procedure:
MDCK-Net6 cells, stably transfected with human hNET (Pacholczyk, T., R. D. Blakely, and S. G. Amara, Nature, 1991, 350(6316): p. 350-4) were cultured in growth medium containing high glucose DMEM (Gibco, Cat. No. 11995), 10% FBS (dialyzed, heat-inactivated, US Bio-Technologies, Lot FBD1129HI) and 500 μg/ml G418 (Gibco, Cat. No. 10131). Cells were plated at 300,000 T75 flask and cells were split twice weekly.
Functional Norepinephrine (NE) Uptake Assay
On day 1, cells were plated at 3,000 cells/well in growth medium and maintained in a cell incubator (37° C., 5% CO2). On day 2, growth medium was replaced with 200 μl of assay buffer (25 mM HEPES; 120 mM NaCl; 5 mM KCl; 2.5 mM CaCl2; 1.2 mM MgSO4; 2 mg/ml glucose (pH 7.4, 37° C.)) containing 0.2 mg/ml ascorbic acid and 1 μM pargyline. For screening, 25 μl of compound in 4% […] was added directly to each well and the plate is incubated for 5 minutes at 37° C.
To initiate the norepinephrine reuptake, 16 nM (final concentration) of ^3H norepinephrine (specific activity; 40-80 Ci/mmol) in assay buffer was delivered in 25 μl aliquots to each well, and the plates were incubated for 5 minutes at 37° C. The reaction was aspirated from the plate and the cells washed with 250 μl of 50 mM Tris Buffer (4° C.). The plates were left to dry for 1 hour. The cells were lysed using 0.25 M NaOH solution then placed on a shake table and vigorously shaken for 10 minutes. After cell lysis, 100 μl of Microscint 20 (PerkinElmer; #87-051101) were added to the plates and the plates were sealed with film tape and replaced on the shake table for a minimum of 10 minutes. The plates were counted in a TopCount counter (PerkinElmer).
For screening single point determinations, each compound plate contains at least 3 control wells (maximum NE reuptake determinant) and 3 non-specific wells determined by adding 20 μM of desipramine (minimum NE reuptake determinant). Determination of active compounds are calculated using a Microsoft Excel spread sheet applying the following formula: % inhibition=[1−((mean cpm test compound wells−mean cpm non-specific wells)/(mean cpm control wells−mean cpm non-specific wells))]×100
For IC50 determination, raw cpm values were generated in a data file from the TopCount counter. The data was organized in Microsoft Excel and transferred into PRIZM graphing and statistical program, which calculates the estimated IC50 value. Calculation of IC50 values were made using non-linear regression analysis with a sigmoidal dose response with variable slope. The statistical program used wells containing ^3H norepinephrine only as the maximal NE reuptake determinant and wells containing ^3H norepinephrine plus 20 μM desipramine as the minimal NE reuptake determinant (non-specific determinant). Estimation of the IC50 value was completed on a log scale and the line was fit between the maximal and minimal NE reuptake values.
The term IC50 denotes the midpoint of a concentration-inhibition curve. A lower IC50 goes with greater potency in that assay. Regarding `CNCCCN1Cc2ccccc2N(c2ccccc2)S1(=O)=O` [Example 1, 3-(2,2-dioxido-1-phenyl-1,4-dihydro-3H-2,1,3-benzothiadiazin-3-yl)-N-methylpropan-1-amine hydrochloride], the half-maximal inhibitory concentration (IC50) is 129 nM. Same read-out and setting: the figure for `CNCCCN1Cc2ccccc2N(c2cccc(F)c2)S1(=O)=O` [Example 2, 3-[1-(3-fluorophenyl)-2,2-dioxido-1,4-dihydro-3H-2,1,3-benzothiadiazin-3-yl]-N-methylpropan-1-amine hydrochloride] is 628 nM; for `CNCCCN1Cc2ccccc2N(c2cccc(C)c2)S1(=O)=O` [Example 3, N-methyl-3-[1-(3-methylphenyl)-2,2-dioxido-1,4-dihydro-3H-2,1,3-benzothiadiazin-3-yl]propan-1-amine hydrochloride] it is 1030 nM.

Consider `CNCCCN1Cc2ccccc2N(c2cccc(OC)c2)S1(=O)=O` [Example 4, 3-[1-(3-methoxyphenyl)-2,2-dioxido-1,4-dihydro-3H-2,1,3-benzothiadiazin-3-yl]-N-methylpropan-1-amine hydrochloride], for which the IC50 came to 792 nM.

As for `CNCCCN1Cc2ccccc2N(c2ccc(Cl)cc2)S1(=O)=O` [Example 5, 3-[1-(4-chlorophenyl)-2,2-dioxido-1,4-dihydro-3H-2,1,3-benzothiadiazin-3-yl]-N-methylpropan-1-amine hydrochloride], the half-maximal inhibitory concentration (IC50) amounted to 908 nM. Still for that read-out and setting: the figure for `CNCCCN1Cc2ccccc2N(c2ccc(F)c(Cl)c2)S1(=O)=O` [Example 6, 3-[1-(3-chloro-4-fluorophenyl)-2,2-dioxido-1,4-dihydro-3H-2,1,3-benzothiadiazin-3-yl]-N-methylpropan-1-amine hydrochloride] is 1500 nM; for `CNCCCN1Cc2ccccc2N(c2ccc(F)cc2)S1(=O)=O` [Example 7, 3-[1-(4-fluorophenyl)-2,2-dioxido-1,4-dihydro-3H-2,1,3-benzothiadiazin-3-yl]-N-methylpropan-1-amine hydrochloride] it is 492 nM. Take `CNCCCN1Cc2ccccc2N(c2ccc(C)cc2)S1(=O)=O` [Example 8, N-methyl-3-[1-(4-methylphenyl)-2,2-dioxido-1,4-dihydro-3H-2,1,3-benzothiadiazin-3-yl]propan-1-amine hydrochloride]: half-maximal inhibition (IC50) was put at 135 nM. The same measure, in the same setting: the figure for `CNCCCN1Cc2ccccc2N(c2ccc(OC)cc2)S1(=O)=O` [Example 9, 3-[1-(4-methoxyphenyl)-2,2-dioxido-1,4-dihydro-3H-2,1,3-benzothiadiazin-3-yl]-N-methylpropan-1-amine hydrochloride] is 3550 nM; for `CNCCCN1Cc2ccccc2N(c2ccc(F)c(F)c2)S1(=O)=O` [Example 10, 3-[1-(3,4-difluorophenyl)-2,2-dioxido-1,4-dihydro-3H-2,1,3-benzothiadiazin-3-yl]-N-methylpropan-1-amine hydrochloride] it is 973 nM.

`CNCCN1Cc2ccccc2N(c2ccccc2F)S1(=O)=O` [Example 11, 2-[1-(2-fluorophenyl)-2,2-dioxido-1,4-dihydro-3H-2,1,3-benzothiadiazin-3-yl]-N-methylethanamine] returned a half-inhibitory concentration (IC50) of 200 nM. On the same count and under the same terms, the figure for `O=S1(=O)N(CCNC2CC2)Cc2ccccc2N1c1ccccc1F` [Example 12, N-{2-[1-(2-fluorophenyl)-2,2-dioxido-1,4-dihydro-3H-2,1,3-benzothiadiazin-3-yl]ethyl}cyclopropanamine] is 2380 nM; for `CNCCCN1Cc2ccccc2N(c2ccccc2F)S1(=O)=O` [Example 13, 3-[1-(2-fluorophenyl)-2,2-dioxido-1,4-dihydro-3H-2,1,3-benzothiadiazin-3-yl]-N-methylpropan-1-amine] it is 29 nM; for `O=S1(=O)N(CCCNC2CC2)Cc2ccccc2N1c1ccccc1F` [Example 14, N-{3-[1-(2-fluorophenyl)-2,2-dioxido-1,4-dihydro-3H-2,1,3-benzothiadiazin-3-yl]propyl}cyclopropanamine] it is 956 nM.

As to `CNCCCCN1Cc2ccccc2N(c2ccccc2F)S1(=O)=O` [Example 15, 4-[1-(2-fluorophenyl)-2,2-dioxido-1,4-dihydro-3H-2,1,3-benzothiadiazin-3-yl]-N-methylbutan-1-amine], the IC50 stood at 38 nM.

`O=S1(=O)N(CCCCNC2CC2)Cc2ccccc2N1c1ccccc1F` [Example 16, N-{4-[1-(2-fluorophenyl)-2,2-dioxido-1,4-dihydro-3H-2,1,3-benzothiadiazin-3-yl]butyl}cyclopropanamine] showed a 50% inhibitory concentration (IC50) of 139 nM. Same read-out and setting: the figure for `CNCCN1Cc2cc(F)ccc2N(c2ccccc2F)S1(=O)=O` [Example 17, 2-[6-fluoro-1-(2-fluorophenyl)-2,2-dioxido-1,4-dihydro-3H-2,1,3-benzothiadiazin-3-yl]-N-methylethanamine] is 1410 nM; for `O=S1(=O)N(CCNC2CC2)Cc2cc(F)ccc2N1c1ccccc1F` [Example 18, N-{2-[6-fluoro-1-(2-fluorophenyl)-2,2-dioxido-1,4-dihydro-3H-2,1,3-benzothiadiazin-3-yl]ethyl}cyclopropanamine] it is 2870 nM. As for `CNCCCN1Cc2cc(F)ccc2N(c2ccccc2F)S1(=O)=O` [Example 19, 3-[6-fluoro-1-(2-fluorophenyl)-2,2-dioxido-1,4-dihydro-3H-2,1,3-benzothiadiazin-3-yl]-N-methylpropan-1-amine], half-maximal inhibition (IC50) was put at 119 nM. The same measure, in the same setting: the figure for `O=S1(=O)N(CCCNC2CC2)Cc2cc(F)ccc2N1c1ccccc1F` [Example 20, N-{3-[6-fluoro-1-(2-fluorophenyl)-2,2-dioxido-1,4-dihydro-3H-2,1,3-benzothiadiazin-3-yl]propyl}cyclopropanamine] is 1750 nM. Still for that read-out and setting: the figure for `CNCCCCN1Cc2cc(F)ccc2N(c2ccccc2F)S1(=O)=O` [Example 21, 4-[6-fluoro-1-(2-fluorophenyl)-2,2-dioxido-1,4-dihydro-3H-2,1,3-benzothiadiazin-3-yl]-N-methylbutan-1-amine] is 30 nM. On the same count and under the same terms, the figure for `O=S1(=O)N(CCCCNC2CC2)Cc2cc(F)ccc2N1c1ccccc1F` [Example 22, N-{4-[6-fluoro-1-(2-fluorophenyl)-2,2-dioxido-1,4-dihydro-3H-2,1,3-benzothiadiazin-3-yl]butyl}cyclopropanamine] is 177 nM. For the compound `CNC[C@@H](O)CCN1Cc2cc(F)ccc2N(c2ccccc2F)S1(=O)=O` [Example 23, (2S)-4-[6-fluoro-1-(2-fluorophenyl)-2,2-dioxido-1,4-dihydro-3H-2,1,3-benzothiadiazin-3-yl]-1-(methylamino)butan-2-ol], the IC50 turned out to be 81 nM. Same read-out and setting: the figure for `CNC[C@@H](O)CCN1Cc2ccccc2N(c2ccccc2F)S1(=O)=O` [Example 24, (2S)-4-[1-(2-fluorophenyl)-2,2-dioxido-1,4-dihydro-3H-2,1,3-benzothiadiazin-3-yl]-1-(methylamino)butan-2-ol] is 95 nM.

The experiment is the same for the next values; noted with them: at 10 uM; MDCK-Net6 cells; printed in the IC50 column where 50% inhibition was not exceeded; read-out: hNET Uptake, % inhibition at highest concentration tested.
In the case of `CNCCCN1c2ccccc2CN(c2ccccc2F)S1(=O)=O` [Example 25, 3-[3-(2-fluorophenyl)-2,2-dioxido-3,4-dihydro-1H-2,1,3-benzothiadiazin-1-yl]-N-methylpropan-1-amine], the inhibition at 10 µM turned out to be 47%. On the same count and under the same terms, the figure for `CNCCN1c2ccccc2CN(c2ccccc2F)S1(=O)=O` [Example 26, 2-[3-(2-fluorophenyl)-2,2-dioxido-3,4-dihydro-1H-2,1,3-benzothiadiazin-1-yl]-N-methylethanamine] is 36%.
